Counter-ions that a name gives are not always drawn.
Key:
Human GlyT1c = target: T1, Human GlyT1c (Homo sapiens, UniProt P48067); experiment: Glycine uptake in recombinant hGlyT1 expressing cells; assay type: cell-based; conditions: hGlyT1c_5_CHO cells; [3H]-glycine uptake, 60-120 min
T1 construct: expressed in transfected cells; host or cells: CHO (hGlyT1c_5_CHO clone)
T1 sequence (P48067 1-706): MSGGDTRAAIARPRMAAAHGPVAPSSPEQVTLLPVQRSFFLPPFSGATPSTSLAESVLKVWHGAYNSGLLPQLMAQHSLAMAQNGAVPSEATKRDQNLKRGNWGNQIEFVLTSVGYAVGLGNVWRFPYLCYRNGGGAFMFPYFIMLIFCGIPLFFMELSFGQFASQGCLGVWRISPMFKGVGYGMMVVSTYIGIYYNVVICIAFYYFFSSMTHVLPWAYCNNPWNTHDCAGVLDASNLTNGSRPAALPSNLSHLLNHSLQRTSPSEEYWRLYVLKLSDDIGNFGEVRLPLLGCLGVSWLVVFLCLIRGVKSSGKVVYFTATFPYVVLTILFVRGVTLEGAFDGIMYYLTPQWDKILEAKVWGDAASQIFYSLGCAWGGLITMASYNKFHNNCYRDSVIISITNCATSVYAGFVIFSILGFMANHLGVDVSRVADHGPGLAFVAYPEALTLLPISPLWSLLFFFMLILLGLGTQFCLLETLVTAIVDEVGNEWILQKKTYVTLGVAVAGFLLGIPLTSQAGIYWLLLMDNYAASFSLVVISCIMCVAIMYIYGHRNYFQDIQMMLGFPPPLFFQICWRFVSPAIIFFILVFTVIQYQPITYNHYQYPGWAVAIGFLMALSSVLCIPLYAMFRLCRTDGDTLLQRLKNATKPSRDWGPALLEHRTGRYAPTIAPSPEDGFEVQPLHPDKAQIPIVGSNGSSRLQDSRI
Procedure: 1. Glycine Uptake in Recombinant hGlyT1 Expressing Cells:
Human GlyT1c expressing recombinant hGlyT1c—5_CHO cells were plated at 20,000 cells per well in 96 well Cytostar-T scintillation microplates (Amersham Biosciences) and cultured to sub-confluency for 24 h. For glycine uptake assays the culture medium was aspirated and the cells were washed once with 100 μl HBSS (Gibco BRL, #14025-050) with 5 mM L-Alanine (Merck #1007). 80 μl HBSS buffer were added, followed by 10 μl inhibitor or vehicle (10% DMSO) and 10 μl [^3H]-glycine (TRK71, Amersham Biosciences) to a final concentration of […] for initiation of glycine uptake. The plates were placed in a Wallac Microbeta (PerkinElmer) and continuously counted by solid phase scintillation spectrometry during up to 3 hours. Nonspecific uptake was determined in the presence of 10 μM Org24598. IC50 calculations were made by four-parametric logistic nonlinear regression analysis (GraphPad Prism) using determinations within the range of linear increase of [^3H]-glycine incorporation between 60 and 120 min.

human GlyT1c transporter = target: T2, human GlyT1c transporter (Homo sapiens, UniProt P48067); experiment: [3H]-(R)-NPTS radioligand binding assay using recombinant hGlyT1 expressing cell membranes; conditions: 0.5 nM [3H]-(R)-NPTS, apparent Ki via Cheng-Prusoff, read-out: [3H]-(R)-NPTS bindung Ki
T2 construct: expressed in transfected cells; host or cells: recombinant hGlyT1-expressing cells
T2 sequence (P48067 1-706): T1 sequence (P48067 1-706)
Procedure: 2. [^3H]-(R)-NPTS Radioligand Binding Assays using Recombinant hGlyT1 Expressing Cell Membranes:
Radioligand binding to human GlyT1c transporter-expressing membranes was measured in duplicate in a total volume of 200 μl in 96-well plates. To 100 μl of membrane suspension (yielding a final membrane protein concentration of 50 μg/ml) in assay buffer (120 mM NaCl, 2 mM KCl, 10 mM Hepes, 1 mM MgCl2, 1 mM CaCl2, pH 7.5) […] of [^3H]-(R)NPTS (0.5 nM final) were added in assay buffer. For competition experiments 10 μl of buffer or unlabeled compound solution obtained from dilution series of test compounds in DMSO followed. An intermediate 1:10 dilution in assay buffer yielded a final DMSO concentration of 1%. Non-specific binding was determined in the presence of 10 μM Org24598 (or its racemate Org24461) for [^3H]-(R)-NPTS. After incubation at room temperature for 1 h, the incubation mixture was harvested (Tomtec Mach III U Harvester) through 96-well GF/B filter plates (PerkinElmer), presoaked for 1 h with 40 μl per well of 0.1% polyethylene-imine (PEI). After washing twice with ice-cold 50 mM Tris-HCl pH 7.4 buffer, drying and addition of 35 μl scintillator (BetaplateScint, PerkinElmer) per well followed. The radioactivity was determined by liquid scintillation spectrometry in a MicroBeta (PerkinElmer) plate counter.
Data analysis: For binding of [^3H]-(R)-NPTS to cell membranes, the calculation of Kd and Bmax values from the saturation binding assays and the IC50 values from the displacement binding was performed by iterative non-linear regression analysis adapted from the ‘Ligand’ program (Munson and Rodbard, 1980). Radioligand displacement curves in absence or in presence of increasing concentrations of tested compounds were fitted using a one-site fit and the apparent Ki values were calculated from the IC50 values using the Cheng-Prusoff equation (Cheng and Prusoff 1973).

| Compound | IC50 (Human GlyT1c) | Ki (human GlyT1c transporter) |
| --- | --- | --- |
| Cc1cc(NCc2ccc(Cl)c(Cl)c2)c2cccc(OCCN3CCCC3)c2n1 [Example 52, (3,4-Dichlorobenzyl)-[2-methyl-8-(2-pyrrolidin-1-yl-ethoxy)-quinolin-4-yl]-amine] | ≤ 1 µM | ≤ 0.1 µM |
| C=CCN1CCCC[C@H]1[C@@H](Nc1cc(C)nc2c(OC)cccc12)c1ccccc1 [Example 53, [(S)—((S)-1-Allylpiperidin-2-yl)-phenylmethyl]-(8-methoxy-2-methylquinolin-4-yl)-amine] | ≤ 100 µM | ≤ 10 µM |
| COc1cccc2c(N[C@@H](c3ccccc3)[C@@H]3CCCCN3)cc(C)nc12 [Example 54, (8-Methoxy-2-methylquinolin-4-yl)-((S)-phenyl-(S)-piperidin-2-yl-methyl)-amine] | ≤ 1 µM | ≤ 1 µM |
| Cc1cc(NCc2ccc(Cl)c(Cl)c2)c2cccc(Oc3ccccn3)c2n1 [Example 55, (3,4-Dichlorobenzyl)-[2-methyl-8-(pyridin-2-yloxy)-quinolin-4-yl]-amine] | ≤ 10 µM | ≤ 1 µM |
| Cc1cc(NCc2ccc(Cl)c(Cl)c2)c2cccc(OC(F)(F)F)c2n1 [Example 56, (3,4-Dichloro-benzyl)-(2-methyl-8-trifluoromethoxyquinolin-4-yl)-amine] | ≤ 0.1 µM | ≤ 1 µM |
| COc1cccc2c(N[C@@H](C)c3ccc(Cl)cc3)cc(C)nc12 [Example 57, [(S)-1-(4-Chlorophenyl)-ethyl]-(8-methoxy-2-methylquinolin-4-yl)-amine] | ≤ 100 µM | ≤ 10 µM |
| COc1cccc2c(N[C@H](C)c3ccc(Cl)cc3)cc(C)nc12 [Example 58, [(R)-1-(4-Chlorophenyl)-ethyl]-(8-methoxy-2-methylquinolin-4-yl)-amine] | ≤ 1 µM | ≤ 0.1 µM |
| C=CCN1CCCC[C@H]1[C@@H](Nc1cc(C)nc2ccccc12)c1ccccc1 [Example 59, [(S)—((S)-1-Allylpiperidin-2-yl)-phenylmethyl]-(2-methylquinolin-4-yl)-amine] | ≤ 100 µM | ≤ 10 µM |
| Cc1cc(N[C@@H](c2ccccc2)[C@@H]2CCCCN2)c2ccccc2n1 [Example 60, (2-Methylquinolin-4-yl)-((S)-phenyl-(S)-piperidin-2-yl-methyl)-amine] | ≤ 1 µM | ≤ 1 µM |
| Cc1cc(N[C@@H](c2ccccc2)[C@@H]2CCCCN2C)c2ccccc2n1 [Example 61, (S)—((S)-1-Methylpiperidin-2-yl)-phenylmethyl]-(2-methylquinolin-4-yl)-amine dihydrochloride] | ≤ 10 µM | ≤ 10 µM |
| COc1cccc2c(NC(CN3CCOCC3)c3ccccc3)cc(C)nc12 (centres unmarked) [Example 62, (8-Methoxy-2-methylquinolin-4-yl)-(2-morpholin-4-yl-1-phenyl)-ethylamine] | ≤ 10 µM | ≤ 10 µM |
| COc1cccc2c(NC(CN3CCCCC3)c3ccccc3)cc(C)nc12 (centres unmarked) [Example 63, (8-Methoxy-2-methyl-quinolin-4-yl)-(1-phenyl-2-piperidin-1-yl)-ethylamine] | ≤ 100 µM | ≤ 10 µM |
| COc1cccc2c(NC(c3ccccc3)c3ccc(Cl)cc3)cc(C)nc12 (centres unmarked) [Example 64, [(4-Chlorophenyl)-phenylmethyl]-(8-methoxy-2-methylquinolin-4-yl)-amine] | ≤ 10 µM | ≤ 10 µM |
| COc1cccc2c(NC(CN3CCOCC3)c3ccc(Cl)cc3)cc(C)nc12 (centres unmarked) [Example 65, [1-(4-Chlorophenyl)-2-morpholin-4-yl-ethyl]-(8-methoxy-2-methylquinolin-4-yl)-amine] | ≤ 10 µM | ≤ 10 µM |
| COc1cccc2c(NC(CN3CCCCC3)c3ccc(Cl)cc3)cc(C)nc12 (centres unmarked) [Example 66, [1-(4-Chlorophenyl)-2-piperidin-1-yl-ethyl]-(8-methoxy-2-methylquinolin-4-yl)-amine] | ≤ 10 µM | ≤ 10 µM |
| COc1cccc2c(NC(CN3CCCC3)c3ccc(Cl)cc3)cc(C)nc12 (centres unmarked) [Example 67, [1-(4-Chloro-phenyl)-2-pyrrolidin-1-yl-ethyl]-(8-methoxy-2-methyl-quinolin-4-yl)-amine] | ≤ 10 µM | ≤ 1 µM |
